# Read-outs that look alike come from different tables or passages of the source.
# Tests used:
# Na+ Channel = assay: Cerep selectivity panel; assay type: binding
# GAL2 (h) = biological target: T1, GAL2 (h) (Homo sapiens, UniProt O43603); assay: Cerep selectivity panel; assay type: binding
# T1 construct: purchased Cerep
# Procedure, shortened: (§1)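 Tested at 1 µM and 10 µM in a 50-target selectivity panel spanning receptors, ion channels and transporters.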
# SST = assay: Cerep selectivity panel; assay type: binding
# Procedure, shortened: as §1
# M2 (h) = biological target: T2, M2 (h) (Homo sapiens, UniProt P08172); assay: Cerep selectivity panel; assay type: binding
# T2 construct: purchased Cerep
# T2 sequence (P08172 1-466): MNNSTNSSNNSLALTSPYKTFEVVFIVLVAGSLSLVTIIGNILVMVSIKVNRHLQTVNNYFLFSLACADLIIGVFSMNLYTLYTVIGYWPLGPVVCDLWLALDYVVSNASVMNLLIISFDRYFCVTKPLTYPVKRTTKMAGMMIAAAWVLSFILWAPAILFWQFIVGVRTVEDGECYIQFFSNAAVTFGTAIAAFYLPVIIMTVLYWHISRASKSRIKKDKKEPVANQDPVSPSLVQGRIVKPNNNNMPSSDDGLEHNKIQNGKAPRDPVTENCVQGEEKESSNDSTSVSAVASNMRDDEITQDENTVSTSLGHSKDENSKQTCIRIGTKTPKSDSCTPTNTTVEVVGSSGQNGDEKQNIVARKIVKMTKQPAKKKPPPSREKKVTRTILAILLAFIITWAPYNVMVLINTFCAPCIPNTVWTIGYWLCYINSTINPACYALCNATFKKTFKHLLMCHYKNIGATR
# Procedure, shortened: as §1
# SK+ Ca = assay: Cerep selectivity panel; assay type: binding
# 5HT1A (h) = biological target: T3, 5HT1A (h) (Homo sapiens, UniProt P08908); assay: Cerep selectivity panel; assay type: binding
# T3 construct: purchased Cerep
# T3 sequence (P08908 whole entry): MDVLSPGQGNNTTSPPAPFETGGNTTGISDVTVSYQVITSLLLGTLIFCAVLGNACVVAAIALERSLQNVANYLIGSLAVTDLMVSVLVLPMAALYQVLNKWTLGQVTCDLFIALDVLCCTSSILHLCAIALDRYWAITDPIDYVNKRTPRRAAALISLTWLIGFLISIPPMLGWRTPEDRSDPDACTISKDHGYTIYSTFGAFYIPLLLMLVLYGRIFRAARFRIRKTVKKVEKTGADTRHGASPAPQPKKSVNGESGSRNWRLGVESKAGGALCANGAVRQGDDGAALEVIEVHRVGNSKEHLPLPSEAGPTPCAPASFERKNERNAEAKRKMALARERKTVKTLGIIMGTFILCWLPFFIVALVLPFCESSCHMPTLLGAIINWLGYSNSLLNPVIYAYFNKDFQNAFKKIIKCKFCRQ
# Procedure, shortened: as §1
# A1 (h) = biological target: T4, A1 (h) (Homo sapiens, UniProt P30542); assay: Cerep selectivity panel; assay type: binding; settings: for inhibition at 1 µM: read-out: % Inhibition at 1µM; for inhibition at 10 µM: read-out: % Inhibition at 10µM
# T4 construct: purchased Cerep
# T4 sequence (P30542 1-326): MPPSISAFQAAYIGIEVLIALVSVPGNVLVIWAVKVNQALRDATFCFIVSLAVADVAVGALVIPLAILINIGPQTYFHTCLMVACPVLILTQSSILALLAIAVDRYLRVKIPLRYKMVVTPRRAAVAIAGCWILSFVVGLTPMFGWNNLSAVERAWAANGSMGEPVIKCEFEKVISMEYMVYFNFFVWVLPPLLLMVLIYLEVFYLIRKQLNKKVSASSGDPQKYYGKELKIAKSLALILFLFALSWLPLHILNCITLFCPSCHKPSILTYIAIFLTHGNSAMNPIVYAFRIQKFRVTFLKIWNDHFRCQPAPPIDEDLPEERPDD
# Procedure, shortened: as §1
# 5HT7 (h) = biological target: T5, 5HT7 (h) (Homo sapiens, UniProt P34969); assay: Cerep selectivity panel; assay type: binding; settings: for inhibition at 10 µM: read-out: % Inhibition at 10µM
# T5 construct: purchased Cerep
# T5 sequence (P34969 whole entry): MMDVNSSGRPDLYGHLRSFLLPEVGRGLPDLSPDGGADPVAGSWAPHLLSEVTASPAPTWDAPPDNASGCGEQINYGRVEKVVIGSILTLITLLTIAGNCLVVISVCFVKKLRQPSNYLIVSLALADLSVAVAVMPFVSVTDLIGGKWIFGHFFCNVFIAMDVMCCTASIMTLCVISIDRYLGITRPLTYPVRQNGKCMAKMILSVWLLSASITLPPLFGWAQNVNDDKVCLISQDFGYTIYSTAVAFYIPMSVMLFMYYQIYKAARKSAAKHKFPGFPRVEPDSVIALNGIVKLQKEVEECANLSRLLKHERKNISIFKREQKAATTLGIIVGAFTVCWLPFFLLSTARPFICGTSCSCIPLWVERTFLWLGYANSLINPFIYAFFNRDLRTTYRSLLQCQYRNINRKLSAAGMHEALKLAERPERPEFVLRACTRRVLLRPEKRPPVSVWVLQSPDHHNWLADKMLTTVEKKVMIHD
# Procedure, shortened: as §1
# VIP 1 (h) = biological target: T6, VIP 1 (h) (Homo sapiens, UniProt P32241); assay: Cerep selectivity panel; assay type: binding
# T6 construct: purchased Cerep
# T6 sequence (P32241 31-457): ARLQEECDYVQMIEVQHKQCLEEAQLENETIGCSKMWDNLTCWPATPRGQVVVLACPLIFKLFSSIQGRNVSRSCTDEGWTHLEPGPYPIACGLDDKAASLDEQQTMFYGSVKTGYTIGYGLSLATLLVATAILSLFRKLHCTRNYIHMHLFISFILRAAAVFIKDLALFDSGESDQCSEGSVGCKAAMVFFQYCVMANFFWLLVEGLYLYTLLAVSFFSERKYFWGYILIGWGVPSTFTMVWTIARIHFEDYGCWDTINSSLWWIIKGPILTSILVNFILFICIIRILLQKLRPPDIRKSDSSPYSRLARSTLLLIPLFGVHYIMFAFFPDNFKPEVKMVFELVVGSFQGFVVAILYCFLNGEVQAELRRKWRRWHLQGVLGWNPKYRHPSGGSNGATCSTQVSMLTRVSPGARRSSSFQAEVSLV
# Procedure, shortened: as §1
# ETA (h) = biological target: T7, ETA (h) (Homo sapiens, UniProt P25101); assay: Cerep selectivity panel; assay type: binding; settings: for inhibition at 10 µM: read-out: % Inhibition at 10µM
# T7 construct: purchased Cerep
# T7 sequence (P25101 21-427): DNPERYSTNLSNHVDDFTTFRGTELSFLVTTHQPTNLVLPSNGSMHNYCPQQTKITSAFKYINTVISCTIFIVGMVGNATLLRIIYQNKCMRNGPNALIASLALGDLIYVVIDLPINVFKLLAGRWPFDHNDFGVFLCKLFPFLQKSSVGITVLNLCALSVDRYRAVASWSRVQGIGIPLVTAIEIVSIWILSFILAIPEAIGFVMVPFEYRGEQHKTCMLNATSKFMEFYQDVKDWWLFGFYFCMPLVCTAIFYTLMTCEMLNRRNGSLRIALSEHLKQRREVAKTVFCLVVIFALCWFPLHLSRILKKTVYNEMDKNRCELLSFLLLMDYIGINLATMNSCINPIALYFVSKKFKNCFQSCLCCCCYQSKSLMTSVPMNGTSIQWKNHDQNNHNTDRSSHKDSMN
# Procedure, shortened: as §1
# 5HT1B = biological target: T8, 5HT1B (Rattus norvegicus, UniProt P28564); assay: Cerep selectivity panel; assay type: binding
# T8 construct: purchased Cerep
# T8 sequence (P28564 whole entry): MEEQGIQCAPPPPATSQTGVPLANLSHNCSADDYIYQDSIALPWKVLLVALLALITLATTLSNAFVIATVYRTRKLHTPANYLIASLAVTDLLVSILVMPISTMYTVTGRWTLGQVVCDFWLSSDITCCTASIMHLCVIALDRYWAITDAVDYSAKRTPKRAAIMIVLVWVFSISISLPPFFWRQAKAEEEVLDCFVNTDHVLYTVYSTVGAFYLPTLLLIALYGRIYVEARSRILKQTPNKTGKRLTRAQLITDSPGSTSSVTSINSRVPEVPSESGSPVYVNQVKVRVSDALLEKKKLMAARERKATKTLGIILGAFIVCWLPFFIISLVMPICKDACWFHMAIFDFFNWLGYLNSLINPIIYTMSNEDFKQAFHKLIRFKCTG
# Procedure, shortened: as §1
# K Channel = assay: Cerep selectivity panel; assay type: binding
# RORγt transcripts = assay: RT-PCR of RORγt transcripts in human CD4 T cells during Th17 differentiation; assay type: cell-based; settings: 0.1 and 0.5 μM, throughout the time course (2 hours to 6 days)
# Procedure: Human CD4 T cells from 2 healthy donors were used in studies. 5.0 × 10^6 human CD4 T cells were used per sample and cell samples were collected at 0, 24 and 48 hours of Th17 differentiation for gene expression studies with RNA-Seq and RT-PCR.
# For compound treatment, CD4 T cells were pre-treated with compounds or DMSO vehicle control at 37°C for 1 hour before T cell activation.
# T cells after compound or siRNA treatments were stimulated with anti-CD3/anti-CD28 coated beads (Miltenyi Biotech) at 2:1 bead to cell ratio in culture medium containing 10 ng/ml IL1β (R&D), 10 ng/ml IL23 (R&D), 30 ng/ml TGFβ1 (R&D), 10 μg/ml of anti-IL4 and anti-IFNγ (eBioscience). T cell cultures were collected at different time points for RNA extraction and gene expression studies.
# Expression of RORα, RORγt and IL-17A genes in siRNA or compound treated human Th17 cells was measured by quantitative RT-PCR using the TaqMan RNA-to-Ct 1 step kit (Applied Biosystems) following the manufacturer’s instructions. […] Real time PCR was performed using 600ng total RNA as template in the ABI PRISM 7500 Sequence Detection System (Applied Biosystems), with reaction starting at 48°C for 15 minutes, then 10 minutes at 95°C, followed by 40 cycles of 15 seconds at 95°C and 1 minute at 60°C.
# PCR results were analyzed with the ddCT algorithm [34] to generate data on relative quantitation and changes in gene expression.
# H2 (h) = biological target: T9, H2 (h) (Homo sapiens, UniProt P25021); assay: Cerep selectivity panel; assay type: binding
# T9 construct: purchased Cerep
# T9 sequence (P25021 whole entry): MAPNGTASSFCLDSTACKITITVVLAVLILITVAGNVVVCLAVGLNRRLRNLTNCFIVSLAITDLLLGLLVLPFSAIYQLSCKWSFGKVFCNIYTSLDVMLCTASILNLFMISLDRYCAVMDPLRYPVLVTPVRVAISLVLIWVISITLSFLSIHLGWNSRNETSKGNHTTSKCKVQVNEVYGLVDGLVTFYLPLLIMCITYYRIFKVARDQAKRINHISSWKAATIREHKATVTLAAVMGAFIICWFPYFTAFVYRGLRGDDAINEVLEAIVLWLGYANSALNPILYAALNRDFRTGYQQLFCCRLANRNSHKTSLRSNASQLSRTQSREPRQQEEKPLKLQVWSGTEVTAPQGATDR
# Procedure, shortened: as §1
# CCKA (h) = biological target: T10, CCKA (h) (Homo sapiens, UniProt P32238); assay: Cerep selectivity panel; assay type: binding
# T10 construct: purchased Cerep
# T10 sequence (P32238 whole entry): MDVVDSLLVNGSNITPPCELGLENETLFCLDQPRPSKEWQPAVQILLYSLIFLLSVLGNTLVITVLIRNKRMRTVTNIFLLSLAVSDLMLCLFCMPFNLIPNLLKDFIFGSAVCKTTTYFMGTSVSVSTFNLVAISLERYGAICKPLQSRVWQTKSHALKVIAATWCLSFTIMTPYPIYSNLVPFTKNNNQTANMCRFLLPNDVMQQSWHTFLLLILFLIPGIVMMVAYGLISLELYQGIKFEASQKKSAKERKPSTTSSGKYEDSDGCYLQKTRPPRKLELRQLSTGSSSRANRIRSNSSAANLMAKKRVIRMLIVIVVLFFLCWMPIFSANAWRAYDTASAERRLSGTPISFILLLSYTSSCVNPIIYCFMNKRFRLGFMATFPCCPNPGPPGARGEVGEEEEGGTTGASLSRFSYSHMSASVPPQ
# Procedure, shortened: as §1
# M1 (h) = biological target: T11, M1 (h) (Homo sapiens, UniProt P11229); assay: Cerep selectivity panel; assay type: binding
# T11 construct: purchased Cerep
# T11 sequence (P11229 1-460): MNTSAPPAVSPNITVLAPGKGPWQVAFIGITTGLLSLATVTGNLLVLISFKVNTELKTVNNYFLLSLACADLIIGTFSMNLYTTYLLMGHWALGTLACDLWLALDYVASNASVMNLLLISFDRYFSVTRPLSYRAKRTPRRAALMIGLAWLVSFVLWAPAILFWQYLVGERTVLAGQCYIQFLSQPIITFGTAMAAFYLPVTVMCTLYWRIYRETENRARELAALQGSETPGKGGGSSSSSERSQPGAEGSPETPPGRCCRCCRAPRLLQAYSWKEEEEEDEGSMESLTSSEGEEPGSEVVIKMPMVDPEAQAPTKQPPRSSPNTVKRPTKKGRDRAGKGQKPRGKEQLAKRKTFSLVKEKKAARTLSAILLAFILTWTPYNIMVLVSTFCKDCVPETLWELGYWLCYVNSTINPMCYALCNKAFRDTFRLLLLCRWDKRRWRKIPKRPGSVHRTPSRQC
# Procedure, shortened: as §1
# CCR1 (h) = biological target: T12, CCR1 (h) (Homo sapiens, UniProt P32246); assay: Cerep selectivity panel; assay type: binding
# T12 construct: purchased Cerep
# T12 sequence (P32246 whole entry): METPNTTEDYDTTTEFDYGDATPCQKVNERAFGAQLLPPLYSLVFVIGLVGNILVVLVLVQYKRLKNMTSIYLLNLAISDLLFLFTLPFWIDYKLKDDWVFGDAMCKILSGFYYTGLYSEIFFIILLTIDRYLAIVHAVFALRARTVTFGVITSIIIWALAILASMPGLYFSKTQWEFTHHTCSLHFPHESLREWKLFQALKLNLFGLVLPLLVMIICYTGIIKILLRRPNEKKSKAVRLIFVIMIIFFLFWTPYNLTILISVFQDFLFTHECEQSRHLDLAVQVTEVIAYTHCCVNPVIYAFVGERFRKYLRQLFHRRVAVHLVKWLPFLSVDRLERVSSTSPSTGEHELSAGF
# Procedure, shortened: as §1
# T1 sequence (O43603 whole entry): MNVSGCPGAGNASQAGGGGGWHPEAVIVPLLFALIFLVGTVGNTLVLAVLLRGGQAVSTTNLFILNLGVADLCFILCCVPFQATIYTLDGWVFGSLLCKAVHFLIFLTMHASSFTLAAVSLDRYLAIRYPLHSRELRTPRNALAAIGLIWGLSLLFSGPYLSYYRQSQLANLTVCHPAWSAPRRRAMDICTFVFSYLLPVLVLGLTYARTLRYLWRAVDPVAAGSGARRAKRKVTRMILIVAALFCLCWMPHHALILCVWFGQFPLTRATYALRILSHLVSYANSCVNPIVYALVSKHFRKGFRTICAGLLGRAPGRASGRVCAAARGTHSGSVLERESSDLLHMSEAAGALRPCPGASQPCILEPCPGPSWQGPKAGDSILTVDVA
smiles,measurement,setting,value
COc1nc2ccc([C@](O)(c3ccc(Cl)cc3)c3cncn3C)cc2c(Cl)c1Cc1ccc(-n2cccn2)cc1 [B],% Inhibition at 10µM,Na+ Channel,3%
same,inhibition at 10 µM,GAL2 (h),1%
same,% Inhibition at 10µM,SST,1%
same,inhibition at 1 µM,M2 (h),16%
same,inhibition at 10 µM,M2 (h),23%
COc1nc2ccc([C@@](O)(c3ccc(C)nc3C)c3cnnn3C)cc2c(Cl)c1Cc1ccc(C(F)(F)F)cc1 [compound A],% Inhibition at 1µM,Na+ Channel; 1 µM,20%
same,% Inhibition at 10µM,Na+ Channel,45%
same,% Inhibition at 10µM,SK+ Ca,1%
same,inhibition at 1 µM,5HT1A (h); 1 µM,14%
same,inhibition at 10 µM,5HT1A (h); 10 µM,19%
same,inhibition at 1 µM,"A1 (h); A1 (h), 1 µM",19%
same,inhibition at 10 µM,"A1 (h); A1 (h), 10 µM",30%
same,inhibition at 1 µM,"5HT7 (h); 5HT7 (h), 1 µM",4%
same,inhibition at 10 µM,"5HT7 (h); 5HT7 (h), 10 µM",4%
same,inhibition at 1 µM,VIP 1 (h),3%
same,inhibition at 1 µM,"ETA (h); ETA (h), 1 µM",5%
same,inhibition at 10 µM,"ETA (h); ETA (h), 10 µM",4%
same,inhibition at 10 µM,5HT1B,1%
same,% Inhibition at 10µM,SST,6%
same,% Inhibition at 10µM,K Channel,9%
CN(C)c1nc2ccc(C(O)(c3ccncc3)c3cncn3C)cc2c(Cl)c1-c1ccccc1 (centres unmarked) [compound D],effect on RORγt expression in T cells,RORγt transcripts,did not affect
same,inhibition at 1 µM,A1 (h),18%
same,inhibition at 10 µM,A1 (h),50%
same,inhibition at 10 µM,5HT7 (h),16%
same,inhibition at 10 µM,H2 (h),5%
same,inhibition at 1 µM,CCKA (h),11%
same,inhibition at 1 µM,M1 (h),6%
same,inhibition at 10 µM,M1 (h),67%
same,inhibition at 10 µM,CCR1 (h); 10 µM,6%
same,inhibition at 1 µM,M2 (h),10%
same,inhibition at 10 µM,M2 (h),47%
COc1nc2ccc([C@@](O)(c3ccccc3)C3CCN(C(C)=O)CC3)cc2c(Cl)c1Cc1ccc(-n2cccn2)cc1 [C],% Inhibition at 1µM,SK+ Ca; 1 µM,1%
same,% Inhibition at 10µM,SK+ Ca,5%
same,inhibition at 10 µM,ETA (h),12%
same,inhibition at 1 µM,M1 (h),12%
same,inhibition at 10 µM,M1 (h),21%
same,inhibition at 1 µM,CCR1 (h); 1 µM,17%
same,% Inhibition at 10µM,K Channel,17%

# Source: publication PMC5538713, “RORγt and RORα signature genes in human Th17 cells” (PLoS ONE, 2017)
